The subject of this test is HRE-bla ME-180 cells. Briefly: Reporter gene assay (HRE-bla ME-180 HIF reporter, GeneBLAzer). The settings on record: for EC50: 24 hour normoxia. Format: cell-based, human. As for the experimental part: The following reagents were used:
• DMEM+GutaMAX: (#10569044, Invitrogen) • Black clear bottom plates: (#3603, Costar) • HRE-bla-ME-180 cell line: (#K1644, Invitrogen) • Gene-Blazer reagent & protocol: (#K1096, Invitrogen) • Plate reader: Biotek Synergy 2 • Chetomin: (C9623, Sigma)
4 hours prior to experiment: HRE-bla ME-180 cells were seeded at a density of 20,000 cells/well in a volume of 180 μl in black clear bottom 96-well plates. 180 μl of assay medium was added to the cell-free control wells. Incubation was conducted at 37° C., 5% CO2 for 4 hours.
Diluted chetomin was used as a positive control. Chetomin was diluted in 100% DMSO to a 10 mM stock concentration. A 1 mM stock of chetomin was prepared in 100% DMSO. Then the 1 mM chetomin stock was serially diluted in 1:4 in 100% DMSO. Finally, 50, 12.5, 3.125, 0.78, 0.2, 0.05 μM stock of chetomin in 5% DMSO/water were prepared by adding 114 μL water+6 μL chetomin in DMSO.
Test peptides were diluted before use. The test peptides were diluted in 100% DMSO to a 10 mM stock concentration. Then each 10 mM peptide stock was diluted in 1:3 in 100% DMSO. Finally, 300, 100, 33.3, 11.1, 3.7, 1.2 μM stock of each peptide in 5% DMSO/water were prepared by adding 129.2 μL water+4 μL peptide in DMSO.
20 μl of peptide, chetomin dilution, or DMSO/water control were added to the appropriate wells of a plate to achieve 200 μL final volumes in 0.3% DMSO/media. The plate was first incubated for 18-20 hours in normoxia incubator (37° C. in humidified 5% CO2, 20% O2 atmosphere). Then the plate was transferred to hypoxia incubator for 24 hours (37° C. in humidified 5% CO2, 1% O2 atmosphere)
6× LiveBLAzer™-FRET B/G (CCF4-AM) Substrate Mixture was prepared according to CellSensor™ HRE-bla ME-180 Cell-based Assay Protocol (Invitrogen) and added into each well. Solution A (CCF4-AM) was reconstituted in DMSO to a working concentration of 1 mM, divided in aliquots, and stored at −20° C. The 6× LiveBLAzer-FRET B/G (CCF4-AM) Substrate mixture was prepared by mixing 6 μl of Solution A, 60 μl of Solution B, and 934 μl Solution C.
The plates were removed from incubator and equilibrated to RT for a few minutes. Then 20 μl of 6× Substrate mixture was added to each well. The plates were then incubated at room temperature for 3 hr in the dark and read at 409 Ex/460Em and 409Ex/530Em using the “GeneBlazer-Tungsten with export” program on the Synergy 2.
The average percentage of maximum inhibition was obtained by comparing the peptide treated cells (30 μM) to DMSO vehicle control treated cells. The results are shown in the columns “ME-180 HIF Reporter EC50 (μM) −24 hr normoxia” and “18 h Avg % max inhibition at top conc (HIF Rptr-24 hrsnormoxia) (μM)” of Table 6.
A general note: A reporter such as luciferase makes a cellular process visible.

The term EC50 denotes the concentration that produces a half-maximal response.

Bridge positions count the residues as written; N and C are the ends. Square brackets hold non-standard residues; d marks the D form. Peptide text beside a SMILES is read from it. S5 = C=CCCC[C@](C)(N)C(=O)O; Nle = CCCC[C@H](N)C(=O)O Some results are limits rather than exact numbers.

Consider `CCCC[C@H](NC(=O)[C@H](CC(C)C)NC(=O)[C@@H](NC(=O)[C@H](CCC(=O)O)NC(=O)[C@H](CCC(=O)O)NC(=O)[C@H](CC(=O)O)NC(=O)[C@H](CCC(=O)O)NC(=O)[C@H](Cc1ccccc1)NC(C)=O)C(C)C)C(=O)N[C@@]1(C)CCCC=CCCC[C@@](C)(C(=O)N[C@@H](CCCC)C(=O)N[C@@H](C)C(=O)N[C@@H](CC(C)C)C(=O)N[C@@H](CC(=O)O)C(=O)N[C@@H](CCCNC(=N)N)C(=O)N[C@H](C(N)=O)[C@@H](C)CC)NC(=O)[C@H]([C@@H](C)CC)NC(=O)[C@H](C(C)C)NC(=O)[C@H](CC(C)C)NC1=O` [SP-31] (Ac-FEDEEVL[Nle][S5]LVI[S5][Nle]ALDRI-NH2; staple 9-13), for which the “18 h Avg % max inhibition at top conc (HIF Rptr-24 hrs normoxia) (μM)” value (“18 h Avg % max inhibition at top conc” for short) is “+ (<10: +)” and the EC50 is more than 30 µM.

For `CCCC[C@H](NC(=O)[C@H](CC(C)C)NC(=O)[C@@H](NC(=O)[C@H](CCC(=O)O)NC(=O)[C@H](CCC(=O)O)NC(=O)[C@H](CC(=O)O)NC(=O)[C@@H](NC(=O)[C@H](Cc1ccccc1)NC(C)=O)[C@@H](C)CC)C(C)C)C(=O)N[C@@]1(C)CCCC=CCCC[C@@](C)(C(=O)N[C@@H](CCCC)C(=O)N[C@@H](C)C(=O)N[C@@H](CC(C)C)C(=O)N[C@@H](CO)C(=O)N[C@@H](CCCNC(=N)N)C(=O)N[C@H](C(N)=O)[C@@H](C)CC)NC(=O)[C@H]([C@@H](C)CC)NC(=O)[C@H](C(C)C)NC(=O)[C@H](CC(C)C)NC1=O` [SP-57] (Ac-FIDEEVL[Nle][S5]LVI[S5][Nle]ALSRI-NH2; staple 9-13), the “18 h Avg % max inhibition at top conc” value is reported as “++++ (≥50: ++++)” and the EC50 is 5 to 15 µM.

As to `CCCC[C@H](NC(=O)[C@H](CC(C)C)NC(=O)[C@@H](NC(=O)[C@H](CCC(=O)O)NC(=O)[C@H](CCC(=O)O)NC(=O)[C@H](CC(=O)O)NC(=O)[C@@H](NC(=O)[C@H](Cc1ccccc1)NC(C)=O)[C@@H](C)CC)C(C)C)C(=O)N[C@@]1(C)CCCC=CCCC[C@@](C)(C(=O)N[C@@H](CCCC)C(=O)N[C@@H](C)C(=O)N[C@@H](CC(C)C)C(=O)N[C@@H](CC(=O)O)C(=O)N[C@@H](CCCNC(=N)N)C(N)=O)NC(=O)[C@H]([C@@H](C)CC)NC(=O)[C@H](C(C)C)NC(=O)[C@H](CC(C)C)NC1=O` [SP-27] (Ac-FIDEEVL[Nle][S5]LVI[S5][Nle]ALDR-NH2; staple 9-13), the “18 h Avg % max inhibition at top conc” value is given as “++++ (≥50: ++++)” and the EC50 is 5 to 15 µM.

On to `CCCC[C@H](NC(=O)[C@H](CC(C)C)NC(=O)[C@H](CC(=O)O)NC(=O)[C@H](CCC(=O)O)NC(=O)[C@H](CCC(=O)O)NC(=O)[C@H](CC(=O)O)NC(=O)[C@@H](NC(=O)[C@H](Cc1ccccc1)NC(C)=O)[C@@H](C)CC)C(=O)N[C@@]1(C)CCCC=CCCC[C@@](C)(C(=O)N[C@@H](CCCC)C(=O)N[C@@H](C)C(=O)N[C@@H](CC(C)C)C(=O)N[C@@H](CC(=O)O)C(=O)N[C@@H](CCCNC(=N)N)C(=O)N[C@H](C(N)=O)[C@@H](C)CC)NC(=O)[C@H]([C@@H](C)CC)NC(=O)[C@H](C(C)C)NC(=O)[C@H](CC(C)C)NC1=O` [SP-32] (Ac-FIDEEDL[Nle][S5]LVI[S5][Nle]ALDRI-NH2; staple 9-13), for which the “18 h Avg % max inhibition at top conc” value is on record as “+++ (≤25 but <50: +++)” and the EC50 fell in the range of 15 to 30 µM.

With `CCCC[C@H](NC(=O)[C@H](CC(C)C)NC(=O)[C@H](CO)NC(=O)[C@H](CCC(=O)O)NC(=O)[C@H](CCC(=O)O)NC(=O)[C@H](CC(=O)O)NC(=O)[C@@H](NC(=O)[C@H](Cc1ccccc1)NC(C)=O)[C@@H](C)CC)C(=O)N[C@@]1(C)CCCC=CCCC[C@@](C)(C(=O)N[C@@H](CCCC)C(=O)N[C@@H](C)C(=O)N[C@@H](CC(C)C)C(=O)N[C@@H](CC(=O)O)C(=O)N[C@@H](CCCNC(=N)N)C(=O)N[C@H](C(N)=O)[C@@H](C)CC)NC(=O)[C@H]([C@@H](C)CC)NC(=O)[C@H](C(C)C)NC(=O)[C@H](CC(C)C)NC1=O` [SP-48] (Ac-FIDEESL[Nle][S5]LVI[S5][Nle]ALDRI-NH2; staple 9-13), the “18 h Avg % max inhibition at top conc” value is recorded as “+++ (≤25 but <50: +++)” and the EC50 was in the range of 15 to 30 µM.

As to `CCCC[C@H](NC(=O)[C@H](CC(C)C)NC(=O)[C@@H](NC(=O)[C@H](CCC(=O)O)NC(=O)[C@H](CCC(=O)O)NC(=O)[C@H](CC(=O)O)NC(=O)[C@@H](NC(=O)[C@H](Cc1ccccc1)NC(C)=O)[C@@H](C)CC)C(C)C)C(=O)N[C@@]1(C)CCCC=CCCC[C@@](C)(C(=O)N[C@@H](CCCC)C(=O)N[C@@H](C)C(=O)N[C@@H](CC(C)C)C(=O)N[C@@H](CC(=O)O)C(=O)N[C@@H](CCC(=O)O)C(=O)N[C@H](C(N)=O)[C@@H](C)CC)NC(=O)[C@H]([C@@H](C)CC)NC(=O)[C@H](C(C)C)NC(=O)[C@H](CC(C)C)NC1=O` [SP-41] (Ac-FIDEEVL[Nle][S5]LVI[S5][Nle]ALDEI-NH2; staple 9-13), the “18 h Avg % max inhibition at top conc” value is listed as “++++ (≥50: ++++)” and the concentration giving a half-maximal response (EC50) lay within 15 to 30 µM.

As for `CCCC[C@H](NC(=O)[C@H](CC(C)C)NC(=O)[C@@H](NC(=O)[C@H](CCC(=O)O)NC(=O)[C@H](CCC(=O)O)NC(=O)[C@H](CC(=O)O)NC(=O)[C@@H](NC(=O)[C@H](Cc1ccccc1)NC(C)=O)[C@@H](C)CC)C(C)C)C(=O)N[C@@]1(C)CCCC=CCCC[C@@](C)(C(=O)N[C@@H](CCCC)C(=O)N[C@@H](C)C(=O)N[C@@H](CC(C)C)C(=O)N[C@@H](CC(=O)O)C(=O)N[C@@H](CCCNC(=N)N)C(=O)N[C@H](C(N)=O)[C@@H](C)CC)NC(=O)[C@H]([C@@H](C)CC)NC(=O)[C@H](C(C)C)NC(=O)[C@H](CC(=O)O)NC1=O` [SP-35] (Ac-FIDEEVL[Nle][S5]DVI[S5][Nle]ALDRI-NH2; staple 9-13), the “18 h Avg % max inhibition at top conc” value is recorded as “+ (<10: +)” and the half-maximal effective concentration (EC50) was more than 30 µM.

As for `CCCC[C@H](NC(=O)[C@H](CC(C)C)NC(=O)[C@@H](NC(=O)[C@H](CCC(=O)O)NC(=O)[C@H](CCC(=O)O)NC(=O)[C@H](CC(=O)O)NC(=O)[C@@H](NC(=O)[C@H](Cc1ccccc1)NC(C)=O)[C@@H](C)CC)C(C)C)C(=O)N[C@@]1(C)CCCC=CCCC[C@@](C)(C(=O)N[C@@H](CCCC)C(=O)N[C@@H](C)C(=O)N[C@@H](CC(C)C)C(=O)N[C@@H](CC(=O)O)C(=O)N[C@@H](CCCNC(=N)N)C(=O)N[C@H](C(N)=O)[C@@H](C)CC)NC(=O)[C@H]([C@@H](C)CC)NC(=O)[C@H](C(C)C)NC(=O)[C@H](C)NC1=O` [SP-17] (Ac-FIDEEVL[Nle][S5]AVI[S5][Nle]ALDRI-NH2; staple 9-13), the “18 h Avg % max inhibition at top conc” value is listed as “++++ (≥50: ++++)” and the EC50 was 5 to 15 µM.

As for `CCCC[C@H](NC(=O)[C@H](CC(C)C)NC(=O)[C@@H](NC(=O)[C@H](CCC(=O)O)NC(=O)[C@H](CCC(=O)O)NC(=O)[C@H](CC(=O)O)NC(=O)[C@@H](NC(=O)[C@H](Cc1ccccc1)NC(C)=O)[C@@H](C)CC)C(C)C)C(=O)N[C@@]1(C)CCCC=CCCC[C@@](C)(C(=O)N[C@@H](CCCC)C(=O)N[C@@H](C)C(=O)N[C@@H](CC(C)C)C(=O)N[C@@H](CC(=O)O)C(=O)N[C@@H](CCCNC(=N)N)C(=O)N[C@@H](C)C(N)=O)NC(=O)[C@H]([C@@H](C)CC)NC(=O)[C@H](C(C)C)NC(=O)[C@H](CC(C)C)NC1=O` [SP-25] (Ac-FIDEEVL[Nle][S5]LVI[S5][Nle]ALDRA-NH2; staple 9-13), the “18 h Avg % max inhibition at top conc” value was “+++ (≤25 but <50: +++)” and the EC50 was in the range of 5 to 15 µM.

With `CCCC[C@H](NC(=O)[C@H](CC(C)C)NC(=O)[C@@H](NC(=O)[C@H](CCC(=O)O)NC(=O)[C@H](CCC(=O)O)NC(=O)[C@H](CC(=O)O)NC(=O)[C@@H](NC(=O)[C@H](Cc1ccccc1)NC(=O)[C@H](CC(=O)O)NC(C)=O)[C@@H](C)CC)C(C)C)C(=O)N[C@@]1(C)CCCC=CCCC[C@@](C)(C(=O)N[C@@H](CCCC)C(=O)N[C@@H](C)C(=O)N[C@@H](CC(C)C)C(=O)N[C@@H](CC(=O)O)C(=O)N[C@@H](CCCNC(=N)N)C(=O)N[C@H](C(N)=O)[C@@H](C)CC)NC(=O)[C@H]([C@@H](C)CC)NC(=O)[C@H](C(C)C)NC(=O)[C@H](CC(C)C)NC1=O` [SP-29] (Ac-DFIDEEVL[Nle][S5]LVI[S5][Nle]ALDRI-NH2; staple 10-14), the “18 h Avg % max inhibition at top conc” value is “++ (≤10 but <25: ++)” and the EC50 is more than 30 µM.

Values taken from patent US20190225650A1, “PEPTIDOMIMETIC MACROCYCLES AND USE THEREOF IN REGULATING HIF1ALPHA” (AILERON THERAPEUTICS, INC., priority 2013, published 2019).
